Test results from patent US10689376B2, “Substituted-3H-imidazo [4,5-c] pyridine and 1H-pyrrolo[2,3-c]pyridine series of novel ectonucleotide pyrophosphatase/phosphodiesterase-1 (ENPP1) and stimulator for interferon genes (STING) modulators as cancer immunotherapeutics” (Stingray Therapeutics, Inc., priority 2017, dated 2020).

Columns and labels:
[1] = target: T1, Recombinant Human ENPP-1 Protein (Homo sapiens (Human), UniProt P22413); assay: ENPP1 Inhibition Assay; format: biochemical
Description: 1. ENPP1 Inhibition Assay
Materials: • Assay Buffer: 1 mM CaCl2, 0.2 mM ZnCl2, 50 mM Tris, pH 9.0 • Substrate: 8 mM Thymidine 5′-monophosphate p-nitrophenol ester sodium salt (Sigma Cat # T4510) • Enzyme: 5 ng/μL Recombinant Human ENPP-1 Protein (R&D Cat #6136-EN-010) DMSO • 96-well clear assay plates
(§1) An eight point serial dilution of drugs was prepared in 10× in assay buffer with the final assay concentrations starting at 10 μM, 3 μM, 1 μM, 0.3 μM . . . 0 μM. A dilution of DMSO was included as a control. The assay plate was set up as follows with each well in duplicate: 81 μL assay buffer+10 μL ENPP1 inhibitor or DMSO+5 μL Substrate+4 μL Enzyme. Both the enzyme and substrate were added to opposite sides of the well to ensure that there was no interaction until all wells had both components. The plate was then centrifuged gently for 10 seconds, followed by an incubation at 37° C. for 45 minutes. The reaction was quantified by measuring absorbance at 405 nm using the Envision.
(§2) IC50 values are determined using GraphPad Prism 5 software. The data were entered as an X-Y plot into the software as percent inhibition for each concentration of the drug. The concentration values of the drug were log transformed and the nonlinear regression was carried out using the “sigmoidal dose-response (variable slope)” option within the GraphPad software to model the data and calculate IC50 values. The IC50 values reported are the concentration of drug at which 50% inhibition was reached.

[2] = target: Recombinant Human ENPP-2/Autotaxin Protein (Homo sapiens (Human), UniProt Q13822); assay: ENPP2 Inhibition Assay; format: biochemical; settings: result in words
Description: 2. ENPP2 Inhibition Assay
Assay Buffer: 10 mM CaCl2, 5 mM MgCl2, 50 mM Tris, 0.02% Brij-35, pH 8.5
Substrate: 2 mM Bis(p-Nitrophenyl) Phosphate Sodium Salt (Sigma Cat # N3002)
Enzyme: 0.2 ng/μL Recombinant Human ENPP-2/Autotaxin Protein (R&D Cat #5255-EN)
96-well clear assay plates
as §1, with “duplicate: 15” for “duplicate: 81”, “buffer+10 μL,” for “buffer+10 μL”, “or DMSO+50” for “or DMSO+5”, “μL Substrate+25” for “μL Substrate+4”
as §2

[3] = target: T1, Recombinant Human ENPP-1 Protein; assay: ENPP1 Thermal Shift Assay; format: binding
Description: 3. ENPP1 Thermal Shift Assay Materials: Recombinant Human ENPP-1 Protein (R&D Cat #6136-EN-010) Assay Buffer (1 mM CaCl2, 0.2 mM ZnCl2, 50 mM Tris, pH 9.0) 5000× SYPRO Orange (ThermoFisher cat # S6651) 384-well PCR Plates Methods: Each drug was prepared as a 10× solution in the assay buffer and SYPRO Orange was diluted to 10× concentration in water. Wells were set up in duplicate in a 384-well PCR plate as follows: 14 μL assay buffer, 2 μL ENPP1 Inhibitor or DMSO, 2 μL (0.5 μg) ENPP1 protein. Each well was mixed and incubated on ice for 5 minutes. Post incubation, 2 μL of SYPRO Orange was mixed into each well and followed by a gentle centrifugation. The protein melt reaction was run using ViiA7 software with temperatures beginning at 25° C. and increasing by 0.05° C./s to the maximum temperature of 99° C.

[4] = tested on: Saos-2 Cells; assay: ENPP1 Mineralization Assay; format: cell-based; design: key to ENPP1 Mineral assay (50% inhibition at 50 μM): +: active at 50 μM concentration; NA: Not Active
Description: 4. ENPP1 Mineralization Assay
Saos-2 Cells (ATCC CAT # HTB-85)
24-well Tissue Culture Plate
Ascorbic Acid, 5 mg/mL (100×)
β-Glycerophosphate, 1M (100×)
Phosphate Buffered Saline
Alizarin Red, 40 mM pH 4.2
Dye Extraction Reagent, 10% Methanol+10% Acetic Acid
Saos-2 cells were plated at a density of 1.5×10^6 cells/well and allowed to grow to 100% confluency over the following 1-2 days. Once completely confluent, the media was replaced with fresh media supplemented with 1× ascorbic acid, 1× β-glycerophosphate, and varying concentrations of ENPP1 inhibitor (if applicable). The addition of the mineralization components was considered Day 1, On Day 3, the media was gently aspirated with no wash followed by the addition of fresh media, mineralization components, and ENPP1 inhibitor (if applicable). On day 5, the media was gently aspirated and the cells were washed twice with PBS. The cells were then fixed with ice cold 70% ethanol for 1 hour at 4° C. Cells were washed once with PBS and stained with Alizarin Red for 30 minutes at room temperature with gentle rotation. Stained cells were washed three times with water for 10 minutes at room temperature with gentle rotation. After imaging cells, dye extraction reagent was added to each well and incubated for 30 minutes at room temperature. Alizarin red was quantified by measuring absorbance at a wavelength of 405 nm using the Envision.

T1 sequence (P22413 whole entry): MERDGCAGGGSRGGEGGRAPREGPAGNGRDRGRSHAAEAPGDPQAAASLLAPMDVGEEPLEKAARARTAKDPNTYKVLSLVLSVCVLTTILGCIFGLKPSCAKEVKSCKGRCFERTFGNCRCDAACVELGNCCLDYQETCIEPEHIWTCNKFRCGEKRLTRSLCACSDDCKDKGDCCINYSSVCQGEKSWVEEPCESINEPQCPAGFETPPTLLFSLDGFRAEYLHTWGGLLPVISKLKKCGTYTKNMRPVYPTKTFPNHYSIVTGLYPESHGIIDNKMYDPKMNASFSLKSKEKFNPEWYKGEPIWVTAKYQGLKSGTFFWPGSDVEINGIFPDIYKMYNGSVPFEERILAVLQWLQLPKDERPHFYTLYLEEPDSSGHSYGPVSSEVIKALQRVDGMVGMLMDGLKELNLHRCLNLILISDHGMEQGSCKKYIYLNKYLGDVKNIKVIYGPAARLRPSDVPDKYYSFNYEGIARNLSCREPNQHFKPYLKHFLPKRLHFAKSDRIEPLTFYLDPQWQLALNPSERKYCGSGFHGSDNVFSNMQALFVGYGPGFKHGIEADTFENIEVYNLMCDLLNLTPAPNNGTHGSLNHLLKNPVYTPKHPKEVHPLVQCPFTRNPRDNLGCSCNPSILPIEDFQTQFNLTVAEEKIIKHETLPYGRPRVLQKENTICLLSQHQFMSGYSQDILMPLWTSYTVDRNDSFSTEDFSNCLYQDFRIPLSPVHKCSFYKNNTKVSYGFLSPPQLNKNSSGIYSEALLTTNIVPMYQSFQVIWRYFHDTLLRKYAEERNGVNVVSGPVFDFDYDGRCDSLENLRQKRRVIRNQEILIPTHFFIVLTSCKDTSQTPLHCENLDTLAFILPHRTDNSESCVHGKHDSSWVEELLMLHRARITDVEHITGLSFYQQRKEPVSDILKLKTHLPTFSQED

For `COc1ccc(NC(=O)CSc2nc3cc(Cl)ncc3[nH]2)cc1O` [Compound 21, 2-((6-chloro-3H-imidazo[4,5-c]pyridin-2-yl)thio)-N-(3-hydroxy-4-methoxyphenyl)acetamide], the “inhibiting the activity of ENPP1 (FIG. 1)” value ([1]; result in words) was “effective in inhibiting the activity of ENPP1”, the IC50 ([1]; substrate thymidine 5′-monophosphate p-nitrophenol ester, absorbance at 405 nm) was 86 nM and the “inhibiting the activity of ENPP2 (FIGS. 2A and 2B)” value [2] was “ineffective in inhibiting the activity of ENPP2”. For the same compound, the “selectivity ENPP1 versus ENPP2” value [2] was “selective at inhibiting ENPP1 but not ENPP2”, the “Tm (midpoint of the protein unfolding transition) of ENPP1 in the presence of compound” value ([3]; Tm of ENPP1 alone 64.2° C.) was 67.84 °C and the “stability of recombinant ENPP1 protein (FIG. 3)” value ([3]; result in words) was “effective in increasing the stability of recombinant ENPP1 protein”. The “ENPP1 Mineral assay (50% inhibition at 50 μM)” value ([4]; 50 μM, Alizarin Red) was “+” and the “inhibiting ENPP1 ability to produce mineralized nodules (FIG. 4)” value ([4]; result in words) was “effective in inhibiting ENPP1 ability to produce mineralized nodules”.
